Results taken from patent US20040121316A1 (priority 2002, published 2004).
Like-named read-outs stand apart in the source and are kept apart here.

How the values were obtained:
[1] = system: WT HIV-1; assay: microbe, parasite or virus in culture; type: cell-based
[2] = system: HIV-1 46I50V; assay: microbe, parasite or virus in culture; type: cell-based; details: MT-4, 46I50V, read-out: Cell-based assay (MT-4) EC50/nM 46I50V
[3] = system: HIV-1 30N82I88D; assay: microbe, parasite or virus in culture; type: cell-based; details: MT-4, 30N82I88D, read-out: Cell-based assay (MT-4) EC50/nM 30N82I88D
[4] = system: HIV-1 48V54V82A; assay: microbe, parasite or virus in culture; type: cell-based; details: MT-4, 48V54V82A, read-out: Cell-based assay (MT-4) EC50/nM 48V54V82A
[5] = system: HIV-1 48V82A90M; assay: microbe, parasite or virus in culture; type: cell-based; details: MT-4, 48V82A90M; read-out: Cell-based assay (MT-4) EC50/nM 48V82A90M
[6] = system: HIV-1 48V54V82S; assay: microbe, parasite or virus in culture; type: cell-based; details: MT-4, 48V54V82S; read-out: Cell-based assay (MT-4) EC50/nM 48V54V82S
[7] = system: wild-type HIV-1 strain IIIB; assay: microbe, parasite or virus in culture; type: cell-based; details: Human immunodeficiency virus 1, IIIB
[8] = in vitro; details: human
[9] = system: mutant HIV-1 I84V/L90M; assay: Resistance Evaluation, I84V/L90M fold change; type: cell-based; details: EC50 of mutant I84V/L90M relative to wild type; class symbols
[10] = biological target: 84V90M HIV protease (Human immunodeficiency virus type 1 group M subtype B, UniProt P04585, I572V/L578M); assay: biochemical; design: species or system HIV-1
[11] = biological target: T1, WT HIV protease (Human immunodeficiency virus type 1 group M subtype B, UniProt P04585); assay: biochemical; design: species or system HIV-1
T1 construct: synthetic hexapeptide substrate cleavage by HIV-1 protease

[12] = biological target: T2, recombinant HIV-1 protease (Human immunodeficiency virus type 1 group M subtype B, UniProt P04585); assay: biochemical
T2 construct: Enzyme: recombinant HIV-1 protease expressed in E.Coli; purchased Bachem California, Inc. H-9040; host or cells: E. coli

[13] = system: HIV-1 84V90M; assay: microbe, parasite or virus in culture; type: cell-based; details: MT-4, 84V90M, read-out: Cell-based assay (MT-4) EC50/nM 84V90M
[14] = read-out: Cell-based assay (MT-4) EC50/nM WT
[15] = Human immunodeficiency virus 1, read-out: Cell-based assay (MT-4) EC50/nM WT
[16] = Enzymatic assay, 84V90M, read-out: 84V90M IC50/nM

CCOP(=O)(COc1ccc(CC2C(O)C(O)C(Cc3ccc(OC)cc3)N(Cc3ccc(O)cc3)C(=O)N2Cc2ccc(O)cc2)cc1)OCC (centres unmarked) [OCH3, Ph-pOH, OCH2PO3Et2]
EC50 [1, 14]: 29 nM
EC50 [2]: 68 nM
EC50 [3]: 23 nM
EC50 [4]: 67 nM
EC50 [5]: 48 nM
EC50 [6]: 106 nM

CCOP(=O)(COc1ccc(CC2C(O)C(O)C(Cc3ccc(OC)cc3)N(Cc3cccnc3)C(=O)N2Cc2cccnc2)cc1)OCC (centres unmarked) [OCH3, m-pyridine, OCH2PO3Et2]
EC50 [2]: 352 nM
EC50 [3]: 106 nM
EC50 [4]: 1020 nM
EC50 [5]: 480 nM
EC50 [6]: 970 nM

CCOP(=O)(COc1ccc(CC(NC(=O)OC2COC3OCCC23)C(O)CN(CC(C)C)S(=O)(=O)c2ccc(OC)cc2)cc1)OCc1ccccc1 (centres unmarked) [drawing 608 R1=OEt R2=OBn]
EC50 [7]: < 50 nM
CC50 [8]: < 5000 nM

COc1ccc(S(=O)(=O)N(CC(C)C)CC(O)C(Cc2ccc(OCP(=O)(O)O)cc2)NC(=O)OC2COC3OCCC23)cc1 (centres unmarked) [drawing 608 R1=OH R2=OH]
EC50 [7]: 500 to 5000 nM
CC50 [8]: > 50000 nM
I84V/L90M fold change [9]: − (≦3)

CCOC(=O)C(C)NP(=O)(COc1ccc(CC(NC(=O)OC2COC3OCCC23)C(O)CN(CC(C)C)S(=O)(=O)c2ccc(OC)cc2)cc1)NC(C)C(=O)OCC (centres unmarked) [drawing 612 R1=Ala-Et R2=Ala-Et]
EC50 [7]: 50 to 500 nM
CC50 [8]: > 50000 nM
I84V/L90M fold change [9]: − (≦3)

Nc1n[nH]c2ccc(CN3C(=O)N(Cc4cccc(OCP(=O)(O)O)c4)C(Cc4ccccc4)C(O)C(O)C3Cc3ccccc3)cc12 (centres unmarked) [m-OCH2PO3H2]
EC50 [1, 15]: > 12000 nM
IC50 [10]: 33 nM
IC50 [11]: 8.3 nM
Ki ([12]; Ki (nM)): 0.254 nM

Nc1n[nH]c2ccc(CN3C(=O)N(Cc4cccc(OCP(=O)(O)Oc5ccccc5)c4)C(Cc4ccccc4)C(O)C(O)C3Cc3ccccc3)cc12 (centres unmarked) [m-OCH2PO3HPh]
EC50 [1, 15]: 1740 nM
EC50 ([13]; Human immunodeficiency virus 1): > 6000 nM
IC50 [10]: 65 nM
IC50 [11]: 17 nM
Ki ([12]; Ki (nM), Enzymatic assay): 0.644 nM

Nc1n[nH]c2ccc(CN3C(=O)N(Cc4cccc(OCP(=O)(Oc5ccccc5)Oc5ccccc5)c4)C(Cc4ccccc4)C(O)C(O)C3Cc3ccccc3)cc12 (centres unmarked) [m-OCH2PO3Ph2]
EC50 [1, 15]: 1350 nM
EC50 ([2]; Human immunodeficiency virus 1): 3380 nM
EC50 ([3]; Human immunodeficiency virus 1): 1540 nM
EC50 ([4]; Human immunodeficiency virus 1): 2180 nM
EC50 ([13]; Human immunodeficiency virus 1): > 6000 nM
IC50 [10]: 42 nM
IC50 [11]: 10 nM
Ki ([12]; Ki (nM), Enzymatic assay): 0.543 nM

CCCCOC(=O)C(C)NP(=O)(COc1cccc(CN2C(=O)N(Cc3ccc4[nH]nc(N)c4c3)C(Cc3ccccc3)C(O)C(O)C2Cc2ccccc2)c1)NC(C)C(=O)OCCCC (centres unmarked) [m-bis-Ala-Bu]
EC50 [1, 14]: 1080 nM
EC50 [2]: 1540 nM
EC50 [3]: 2360 nM
EC50 [4]: 1850 nM
EC50 [13]: > 6000 nM
IC50 [10, 16]: 103 nM
IC50 ([11]; read-out: WT IC50/nM): 18 nM
Ki ([12]; read-out: Ki): 1.28 nM

CCOC(=O)C(C)NP(=O)(COc1cccc(CN2C(=O)N(Cc3ccc4[nH]nc(N)c4c3)C(Cc3ccccc3)C(O)C(O)C2Cc2ccccc2)c1)NC(C)C(=O)OCC (centres unmarked) [m-bis-Ala-Et]
EC50 [1, 14]: 5620 nM
EC50 [3]: 1850 nM
EC50 [13]: > 6000 nM
IC50 [10, 16]: 202 nM
IC50 ([11]; read-out: WT IC50/nM): 31 nM
Ki ([12]; read-out: Ki): 1.99 nM

Nc1n[nH]c2ccc(CN3C(=O)N(Cc4ccc(OCP(=O)(O)O)cc4)C(Cc4ccccc4)C(O)C(O)C3Cc3ccccc3)cc12 (centres unmarked) [p-OCH2PO3H2]
EC50 [1, 15]: > 12000 nM
IC50 [10]: 1660 nM
IC50 [11]: 551 nM
Ki ([12]; Ki (nM)): > 5 nM

Nc1n[nH]c2ccc(CN3C(=O)N(Cc4ccc(O)cc4)C(Cc4ccccc4)C(O)C(O)C3Cc3ccccc3)cc12 (centres unmarked) [p-OH]
EC50 [2]: 55 nM
EC50 [3]: 79 nM
EC50 [4]: 32 nM
EC50 [5]: 19 nM
EC50 [6]: 39 nM
